Experimental findings from patent publication US5079244A, “Substituted 3-aminosydnone imines, pharmaceutical compositions containing same, and process for administering same” (Cassella Aktiengesellschaft, priority 1989, dated 1992) are described below.

Where a name gives a salt, the structure may show the parent alone. Where only a bound is given, the exact number is not on record here.

This assay has as its system spiral strips of the pulmonary artery of the guinea pig. Kind of assay: relaxant effect on potassium-depolarized, CaCl2-contracted spiral strips of the pulmonary artery of the guinea pig. The note with it: Cavia porcellus, 40 mmol/l potassium, contraction by 0.5 mmol/l CaCl2, cumulative addition, average value of 4 to 6 vessel strips, read-out: IC50: concentration of the test substance which inhibits the contraction by 50%. As for the experimental part:
The pharmacological action of the compounds of the formula I was determined by a modified method of Godfraind and Kaba (Arch. Int. Pharmacodyn. Ther. 196, (Suppl ) 35 to 49, 1972) and of Schuman et al. (Naunyn-Schmiedeberg'sArch. Pharmacol. 289, 409 to 418, 1975). In this connection, spiral strips of the pulmonary artery of the guinea pig are depolarized using 40 mmol/l of potassium after equilibration in calcium-free Tyrode solution. An addition of 0.5 mmol/l of CaCl2 then induces a contraction. The relaxant effect of the test substance is determined by cumulative addition in semilogarithmic graduated concentrations. The concentration of the test substance which inhibits the contraction by 50% (=IC50, mol/l) is determined from the concentration-effect curve (abscissa: --log mol/l of test substance, ordinate % inhibition of the maximum contraction, average value of 4 to 6 vessel strips).
Regarding `CC1CCCC(C)N1[n+]1[n-]oc(=N)c1CSc1ccccc1` (stereo not shown) [Example 5, 3-(2,6-Dimethylpiperidino)-4-phenylthiomethylsydnone imine hydrochloride], the IC50 was determined as 1100 nM.

For `N=c1o[n-][n+](N2CCOCC2)c1CSCc1ccccc1` [Example 7, 4-Benzylthiomethyl-3-morpholinosydnone imine hydrochloride], the IC50 was 700 nM.

Take `CC1CCCC(C)N1[n+]1[n-]oc(=N)c1CSCc1ccccc1` (stereo not shown) [Example 8, 4-Benzylthiomethyl-3-(2,6-dimethylpiperidino)sydnone imine hydrochloride]: the IC50 was 800 nM.

In the case of `CC1CCCC(C)N1[n+]1noc([N-]C(=O)c2ccccc2)c1CSCc1ccccc1` (stereo not shown) [Example 10, N-Benzoyl-4-benzylthiomethyl-3-(2,6-dimethylpiperidino)sydnone imine], the IC50 came to 2000 nM.

In the case of `CC(CSCc1ccccc1)c1c(=N)o[n-][n+]1N1CCOCC1` (stereo not shown) [Example 12, 4-(2-Benzylthio-1-methylethyl)-3-morpholinosydnone imine hydrochloride], the IC50 turned out to be 500 nM.

Take `CC1CCCC(C)N1[n+]1[n-]oc(=N)c1COc1ccccc1` (stereo not shown) [Example 13, 3-(2,6-Dimethylpiperidino)-4-phenoxymethylsydnone imine hydrochloride]: the IC50 turned out to be 2000 nM.

On to `CCOC(=O)[N-]c1cn(N2CCOCC2)n[o+]1` [molsidomine, N-ethoxycarbonyl-3-morpholino-sydnone imine, reference compound], for which the IC50 is greater than 300000 nM.
